From patent US9253985B2, “Herbicidal composition for tolerant or resistant cereal crops” (priority 2010, dated 2016) come the findings set out here.

Where two headings read alike, the source gives them in different places.

Type in all cases: in vivo
The test system of one data set is Viola arvensis. Description: Greenhouse trial: herbicidal efficacy, Viola arvensis. Conditions: post-emergence 2-4-leaf, 14 days after application, g of ai/ha: A1.1 100, B1.1 5, C7 100, C25 1.25, C52 2.5, C43 100, C57 5, mixtures at same rates. Here is the method:
(§1) The trials were carried out under greenhouse conditions (test pots, diameter 8 cm, spray application using 300 l of water/hectare, 2 repetitions, 6 to 8 plants per pot).
(§2) At the time of application, the harmful plants were at the 2-4-leaf growth stage.

The next data set has as its system Matricaria chamomilla. In words: Greenhouse trial: herbicidal efficacy, Matricaria chamomilla. Particulars: post-emergence 2-4-leaf, 14 days after application, g of ai/ha: A1.1 100, B1.1 5, C5 1.25, C24 12.5, C9 7.5, C32 62.5, C37 5, C58 5, C60 10, C61 25, C66 0.375, C71 0.5, C74 0.375, C42 125, mixtures at same rates. Here is the method: as §1
(§3) At the time of application, the harmful plants were at the 2-4-leaf growth stage. The application rates of the herbicidally active compounds used on their own or in combinations are listed in the results tables.
(§4) Scoring was by visual comparison of the treated with the untreated controls (0-100% scale, 14 days after the application. The results (means for all plants per pot and means of two repetitions per pot and treatment) are listed in Tables 4 to 8 below.
(§5) 4.2 Abbreviations used in Tables 4 to 6application rate g/ai=application rate in grams of active compound per hectare • ai=active ingredient (of an active compound content of 100%) • GA=glufosinate-ammonium • wheat tolerant • to GA=GA-tolerant wheat (GMO) • E^C=expected value according to Colby, (E^C=A+B−A×B/100)= • =for ternary combinations: (A+B)+C−(A+B)×C/100 • E^A=expected value according to the addition method (E^A=A+B) • Δ=difference (%) between observed value —%—vs. expected value (%) (observed value minus expected value) • examination: observed values for (A), (B) and (A)+(B) in % • scoring: observed value (%) greater>than E^C/E^A:->synergism (+Δ) • observed value (%) equal to =E^C/E^A->additive effect (+−0Δ) • observed value (%) smaller<than E^A/E^C->antagonism (−Δ)

For data set [1], the system named is Brassica napus (volunteer weed). In words: Greenhouse trial: herbicidal efficacy, Brassica napus. Particulars: post-emergence 2-4-leaf, 14 days after application, g of ai/ha: A1.1 100, B1.1 5, C12 12.5, C18 50, mixtures at same rates. The protocol:
as §1, §3, §4, §5

A further data set has as its system Lolium multiflorum. In words: Greenhouse trial: herbicidal efficacy, Lolium multiflorum. Particulars: post-emergence 2-4-leaf, 14 days after application, g of ai/ha: A1.1 100, B1.1 5, C62 1.25, C4 60, mixtures at same rates. The protocol: as §1, §3, §4, §5
Another data set has as its system wheat (GA-tolerant). The protocol: as §1, §2
A further data set concerns Setaria viridis. In words: Greenhouse trial: herbicidal efficacy, Setaria viridis. Conditions: post-emergence 2-4-leaf, 14 days after application. The protocol:
as §1, §3, §4, §5

Setting [2] is: Table 4, greenhouse, post-emergence, 14 days after application, g of ai/ha: A1.1 100, B1.1 5, C5 1.25, C24 12.5, C9 7.5, C32 62.5, C37 5, C58 5, C60 10, C61 25, C66 0.375, C71 0.5, C74 0.375, C42 125, mixtures at same rates.
Where [3] appears, read: Table 5, greenhouse, post-emergence, 14 days after application, g of ai/ha: A1.1 100, B1.1 5, C7 100, C25 1.25, C52 2.5, C43 100, C57 5, mixtures at same rates.
Where [4] appears, read: Table 6, greenhouse, post-emergence, 14 days after application, g of ai/ha: A1.1 100, B1.1 5, C12 12.5, C18 50, mixtures at same rates.
Where [5] appears, read: Table 7, greenhouse, post-emergence, 14 days after application, g of ai/ha: A1.1 100, line r12 5, C28 50, C40 1, C43 100, C13 50, mixtures (100 + 5) + partner rate.
Where [6] appears, read: Table 8, greenhouse, post-emergence, 14 days after application, g of ai/ha: A1.1 100, B1.1 5, C62 1.25, C4 60, mixtures at same rates.
[7] abbreviates: g of ai/ha: A1.1 100, line r12 5, C28 50, C40 1, C43 100, C13 50, mixtures (100 + 5) + partner rate.

For the compound `CP(=O)(O)CCC(N)C(=O)O` (stereo not drawn) [(A1.1) GA, glufosinate-ammonium], in the data set with Viola arvensis, the “Herbicidal efficacy (%) Viola arvensis” value amounted to 50%. Moreover, the “Herbicidal efficacy (%) Matricaria chamomilla” value in the data set with Matricaria chamomilla is reported as 50%. The “Herbicidal efficacy (%) Brassica napus” value in data set [1] stood at 15%. Further, the “Herbicidal efficacy (%) Lolium multiflorum” value with Lolium multiflorum is 15%. The “Damage to crop plants (%) wheat (GA-tolerant)” value (“Damage to crop plants (%) wheat” below) in the data set with wheat (GA-tolerant) (setting [2]), in the data set with wheat (GA-tolerant) (setting [3]), in the data set on wheat (GA-tolerant) (setting [4]), in the data set with wheat (GA-tolerant) (setting [5]) and in the data set on wheat (GA-tolerant) (setting [6]) was 10% in each case. Further, in the data set on Setaria viridis (g of ai/ha: A1.1 100, C28 50, C40 1, C43 100, C13 50, mixtures (100 + 5) + partner rate), the “Herbicidal efficacy (%) Setaria viridis” value was determined as 90%.

In the case of `COC(=O)c1nc(-c2ccc(Cl)c(OC)c2F)cc(N)c1Cl` [(B1.1), methyl 4-amino-3-chloro-6-(4-chloro-2-fluoro-3-methoxyphenyl)pyridine-2-carboxylate], the “Herbicidal efficacy (%) Viola arvensis” value in the data set on Viola arvensis amounted to 50%. Moreover, the “Herbicidal efficacy (%) Matricaria chamomilla” value in the data set on Matricaria chamomilla was found to be 20%. For the same compound, the “Herbicidal efficacy (%) Brassica napus” value in data set [1] is reported as 60%. Further, in the data set with Lolium multiflorum, the “Herbicidal efficacy (%) Lolium multiflorum” value was 0%. The “Damage to crop plants (%) wheat” value in the data set on wheat (GA-tolerant) (in vivo) is reported as 0%.

For `CCOC(=O)C1=NN(c2ccc(Cl)cc2Cl)C(C)(C(=O)OCC)C1` (stereo not drawn) [(C4) mefenpyr-di-et, mefenpyr(-diethyl)], the “Herbicidal efficacy (%) Lolium multiflorum” value in the data set with Lolium multiflorum came to 0%. In addition, the “Damage to crop plants (%) wheat” value in the data set on wheat (GA-tolerant) (setting [6]) stood at 0%.

`COc1cc(OC)nc(NC(=O)NS(=O)(=O)N(C)S(C)(=O)=O)n1` [(C5) amidosulfuron, amidosulfuron]: the “Herbicidal efficacy (%) Matricaria chamomilla” value in the data set on Matricaria chamomilla is listed as 45%. Also, the “Damage to crop plants (%) wheat” value with wheat (GA-tolerant) (in vivo) is 0%.

Regarding `N#Cc1cc(Br)c(O)c(Br)c1` [(C7) bromoxynil, bromoxynil], the “Herbicidal efficacy (%) Viola arvensis” value in the data set on Viola arvensis worked out at 20%. In addition, the “Damage to crop plants (%) wheat” value with wheat (GA-tolerant) (setting [3]) came to 0%.

Take `CCOC(=O)C(Cl)Cc1cc(-n2nc(C)n(C(F)F)c2=O)c(F)cc1Cl` (stereo not drawn) [(C9) carfentrazone, carfentrazone-ethyl]: the “Herbicidal efficacy (%) Matricaria chamomilla” value in the data set on Matricaria chamomilla was determined as 0%. The “Damage to crop plants (%) wheat” value in the data set with wheat (GA-tolerant) (setting [2]) turned out to be 10%.

Consider `C#CCOC(=O)[C@@H](C)Oc1ccc(Oc2ncc(Cl)cc2F)cc1` [(C12) clodinafop, clodinafop-propargyl], for which, in data set [1], the “Herbicidal efficacy (%) Brassica napus” value is reported as 0%. In the data set on wheat (GA-tolerant) (in vivo), the “Damage to crop plants (%) wheat” value is 0%.

Consider `O=C(O)COc1ccc(Cl)cc1Cl` [(C13) 2,4-D, 2,4-D], for which the “Damage to crop plants (%) wheat” value with wheat (GA-tolerant) (setting [5]) was 0%. The “Herbicidal efficacy (%) Setaria viridis” value in the data set with Setaria viridis (setting [7]) is reported as 0%.

In the case of `O=C(Nc1ccc(F)cc1F)c1cccnc1Oc1cccc(C(F)(F)F)c1` [(C18) diflufenican, diflufenican], the “Herbicidal efficacy (%) Brassica napus” value in data set [1] is 30%. Besides, the “Damage to crop plants (%) wheat” value in the data set on wheat (GA-tolerant) (setting [4]) turned out to be 10%.

Turning to `CCOC(=O)[C@@H](C)Oc1ccc(Oc2nc3ccc(Cl)cc3o2)cc1` [(C24) fenoxaprop-p-et., fenoxaprop-P-ethyl], the “Herbicidal efficacy (%) Matricaria chamomilla” value in the data set with Matricaria chamomilla is on record as 0%. For the same compound, the “Damage to crop plants (%) wheat” value with wheat (GA-tolerant) (setting [2]) is 0%.

For the compound `COc1ncc(F)c2nc(S(=O)(=O)Nc3c(F)cccc3F)nn12` [(C25) florasulam, florasulam], the “Herbicidal efficacy (%) Viola arvensis” value in the data set on Viola arvensis came to 20%. For the same compound, the “Damage to crop plants (%) wheat” value in the data set on wheat (GA-tolerant) (setting [3]) stood at 0%.

`CC(C)N(C(=O)COc1nnc(C(F)(F)F)s1)c1ccc(F)cc1` [(C28) flufenacet, flufenacet (thiafluamide)]: the “Herbicidal efficacy (%) Setaria viridis” value in the data set on Setaria viridis (setting [7]) is 20%.

As for `CNC1=C(c2cccc(C(F)(F)F)c2)C(=O)C(c2ccccc2)O1` (stereo not drawn) [(C32) flurtamone, flurtamone], the “Herbicidal efficacy (%) Matricaria chamomilla” value with Matricaria chamomilla came to 25%. Besides, the “Damage to crop plants (%) wheat” value in the data set with wheat (GA-tolerant) (setting [2]) is 15%.

In the case of `COCc1cnc(C2=NC(C)(C(C)C)C(=O)N2)c(C(=O)O)c1` (stereo not drawn) [(C37) imazamox, imazamox], the “Herbicidal efficacy (%) Matricaria chamomilla” value with Matricaria chamomilla came out at 0%. Moreover, the “Damage to crop plants (%) wheat” value in the data set on wheat (GA-tolerant) (setting [2]) came out at 15%.

With `COC(=O)c1ccc(I)cc1S(=O)(=O)[N-]C(=O)Nc1nc(C)nc(OC)n1.[Na+]` [(C40) iodosulfuron-me-Na, iodosulfuron-methyl-sodium], the “Damage to crop plants (%) wheat” value with wheat (GA-tolerant) (setting [5]) is recorded as 0%. Also, the “Herbicidal efficacy (%) Setaria viridis” value in the data set with Setaria viridis (setting [7]) worked out at 10%.

Turning to `CC(C)c1ccc(NC(=O)N(C)C)cc1` [(C42) isoproturon, isoproturon], in the data set with Matricaria chamomilla, the “Herbicidal efficacy (%) Matricaria chamomilla” value was found to be 15%. Besides, the “Damage to crop plants (%) wheat” value with wheat (GA-tolerant) (in vivo) is on record as 0%.

On to `Cc1cc(Cl)ccc1OCC(=O)O` [(C43) MCPA, MCPA], for which the “Herbicidal efficacy (%) Viola arvensis” value with Viola arvensis stood at 10%. In addition, the “Damage to crop plants (%) wheat” value in the data set with wheat (GA-tolerant) (setting [3]) and in the data set with wheat (GA-tolerant) (setting [5]) was 0% each time. In the data set with Setaria viridis (setting [7]), the “Herbicidal efficacy (%) Setaria viridis” value came out at 0%.

Consider `COC(=O)c1ccc(CNS(C)(=O)=O)cc1S(=O)(=O)NC(=O)Nc1nc(OC)cc(OC)n1` [(C52) mesosulfuron-me, mesosulfuron-methyl], for which the “Herbicidal efficacy (%) Viola arvensis” value in the data set with Viola arvensis worked out at 0%. Besides, the “Damage to crop plants (%) wheat” value with wheat (GA-tolerant) (in vivo) is 0%.

`COc1cnc(OC)n2nc(NS(=O)(=O)c3c(OCC(F)F)cccc3C(F)(F)F)nc12` [(C57) penoxulam, penoxsulam]: the “Herbicidal efficacy (%) Viola arvensis” value with Viola arvensis came out at 5%. In the data set on wheat (GA-tolerant) (in vivo), the “Damage to crop plants (%) wheat” value amounted to 0%.

With `CCc1cc(C)cc(CC)c1-c1c(OC(=O)C(C)(C)C)n2n(c1=O)CCOCC2` [(C58) pinoxaden, pinoxaden], in the data set with Matricaria chamomilla, the “Herbicidal efficacy (%) Matricaria chamomilla” value was 0%. In the data set with wheat (GA-tolerant) (setting [2]), the “Damage to crop plants (%) wheat” value was found to be 0%.

As for `CCCOc1nn(C(=O)[N-]S(=O)(=O)c2ccccc2C(=O)OC)c(=O)n1C.[Na+]` [(C60) propoxycarbazone-Na, propoxycarbazone-sodium], in the data set on Matricaria chamomilla, the “Herbicidal efficacy (%) Matricaria chamomilla” value turned out to be 10%. Besides, in the data set with wheat (GA-tolerant) (setting [2]), the “Damage to crop plants (%) wheat” value is 10%.

For the compound `Cc1nn(C)c(O)c1C(=O)c1ccc(C(F)(F)F)cc1S(C)(=O)=O` [(C61) pyrasulfutole, pyrasulfutole], the “Herbicidal efficacy (%) Matricaria chamomilla” value in the data set with Matricaria chamomilla stood at 50%. Further, the “Damage to crop plants (%) wheat” value with wheat (GA-tolerant) (in vivo) was determined as 0%.

Take `COc1cc(OC)n2nc(NS(=O)(=O)c3c(C(F)(F)F)ccnc3OC)nc2n1` [(C62) pyroxulam, pyroxsulam]: in the data set on Lolium multiflorum, the “Herbicidal efficacy (%) Lolium multiflorum” value amounted to 40%. In the data set on wheat (GA-tolerant) (in vivo), the “Damage to crop plants (%) wheat” value is on record as 10%.

Regarding `COC(=O)c1csc(C)c1S(=O)(=O)NC(=O)n1nc(OC)n(C)c1=O` [(C66) thiencarbazone-me, thiencarbazone-methyl], the “Herbicidal efficacy (%) Matricaria chamomilla” value with Matricaria chamomilla came out at 10%. Besides, the “Damage to crop plants (%) wheat” value in the data set on wheat (GA-tolerant) (in vivo) worked out at 5%.

As for `COc1nc(C)nc(N(C)C(=O)NS(=O)(=O)c2ccccc2C(=O)O)n1` [(C71) tribenuron, tribenuron], the “Herbicidal efficacy (%) Matricaria chamomilla” value with Matricaria chamomilla was found to be 0%. For the same compound, the “Damage to crop plants (%) wheat” value in the data set with wheat (GA-tolerant) (setting [2]) was determined as 0%.

Turning to `COc1nc(C)nc(=NC(=O)NS(=O)(=O)c2ccccc2C(=O)O)[nH]1` [(C74) metsulfuron, metsulfuron], the “Damage to crop plants (%) wheat” value in the data set with wheat (GA-tolerant) (setting [2]) was found to be 0%.
